Reference: publication PMC8044227, “Cardiolipin enhances the enzymatic activity of cytochrome bd and cytochrome bo3 solubilized in dodecyl-maltoside” (Scientific Reports, 2021)

What was measured:
Format in all cases: biochemical
[1] = biological target: T1, cytochrome bd (G. thermodenitrificans) (Geobacillus stearothermophilus, UniProt Q9Z9N1); experiment: O2 consumption inhibition, Clark-type electrode; settings: menaquinol-1 substrate (200 μM quinone, 10 mM DTT); 0.025% DDM, pH 7.5, 37 °C; no cardiolipin
T1 construct: gene cbdA; CbdAB expressed from pSTE-cbdAB in G. thermodenitrificans K1041, purified from membranes in MEGA9+10
T1 sequence (Q9Z9N1 1-448): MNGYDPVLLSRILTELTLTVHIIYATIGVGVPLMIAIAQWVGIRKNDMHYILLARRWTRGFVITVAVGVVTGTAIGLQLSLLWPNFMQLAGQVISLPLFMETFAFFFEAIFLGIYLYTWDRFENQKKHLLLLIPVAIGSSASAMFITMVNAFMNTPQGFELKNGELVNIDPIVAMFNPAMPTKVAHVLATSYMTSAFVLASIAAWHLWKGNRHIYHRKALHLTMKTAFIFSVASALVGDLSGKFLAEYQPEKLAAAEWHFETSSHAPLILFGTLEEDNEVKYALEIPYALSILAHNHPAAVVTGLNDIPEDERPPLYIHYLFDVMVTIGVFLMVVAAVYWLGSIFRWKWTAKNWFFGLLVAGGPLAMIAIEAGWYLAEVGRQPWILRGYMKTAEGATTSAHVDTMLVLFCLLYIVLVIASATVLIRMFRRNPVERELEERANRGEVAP
T1 sequence (Q9Z9N0 1-342 partner): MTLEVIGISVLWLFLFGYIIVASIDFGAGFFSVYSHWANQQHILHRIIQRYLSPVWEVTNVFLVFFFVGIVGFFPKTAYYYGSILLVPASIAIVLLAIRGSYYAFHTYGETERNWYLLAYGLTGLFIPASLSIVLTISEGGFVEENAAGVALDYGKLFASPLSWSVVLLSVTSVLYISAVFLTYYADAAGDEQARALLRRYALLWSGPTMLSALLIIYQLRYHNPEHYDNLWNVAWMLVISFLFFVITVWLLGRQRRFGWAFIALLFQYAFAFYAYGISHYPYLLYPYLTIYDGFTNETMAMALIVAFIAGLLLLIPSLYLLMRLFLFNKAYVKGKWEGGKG

[2] = biological target: T2, cytochrome bd (C. glutamicum) (Corynebacterium glutamicum, UniProt Q9KWL8); experiment: O2 consumption inhibition, Clark-type electrode; settings: menaquinol-1 substrate (200 μM quinone, 10 mM DTT); 0.025% DDM, pH 7.5, 37 °C; no cardiolipin
T2 construct: gene cydA; expressed from pPC4-cydABDC in C. glutamicum delta-ctaD, purified from membranes in DDM (CydD and CydC are not oxidase subunits)

[3] = biological target: T1, cytochrome bd (G. thermodenitrificans); experiment: O2 consumption, Clark-type electrode; settings: 200 μM quinone, 10 mM DTT; 0.025% DDM, pH 7.5, 37 °C; no cardiolipin
[4] = biological target: T2, cytochrome bd (C. glutamicum); experiment: O2 consumption, Clark-type electrode; settings: 200 μM quinone, 10 mM DTT; 0.025% DDM, pH 7.5, 37 °C; no cardiolipin
cytochrome bd (E. coli) = biological target: T3, cytochrome bd (E. coli) (Escherichia coli, UniProt P0ABJ9); experiment: O2 consumption activation, Clark-type electrode; settings: activator; bovine heart lipid, mixed acyl chains (primarily linoleic acid); ubiquinol-1 substrate; 0.025% DDM, pH 7.5, 37 °C
T3 construct: gene cydA; CydABX complex, Strep-tag, expressed in E. coli MB43, streptactin-purified in DDM
T3 sequence (P0ABJ9 1-522): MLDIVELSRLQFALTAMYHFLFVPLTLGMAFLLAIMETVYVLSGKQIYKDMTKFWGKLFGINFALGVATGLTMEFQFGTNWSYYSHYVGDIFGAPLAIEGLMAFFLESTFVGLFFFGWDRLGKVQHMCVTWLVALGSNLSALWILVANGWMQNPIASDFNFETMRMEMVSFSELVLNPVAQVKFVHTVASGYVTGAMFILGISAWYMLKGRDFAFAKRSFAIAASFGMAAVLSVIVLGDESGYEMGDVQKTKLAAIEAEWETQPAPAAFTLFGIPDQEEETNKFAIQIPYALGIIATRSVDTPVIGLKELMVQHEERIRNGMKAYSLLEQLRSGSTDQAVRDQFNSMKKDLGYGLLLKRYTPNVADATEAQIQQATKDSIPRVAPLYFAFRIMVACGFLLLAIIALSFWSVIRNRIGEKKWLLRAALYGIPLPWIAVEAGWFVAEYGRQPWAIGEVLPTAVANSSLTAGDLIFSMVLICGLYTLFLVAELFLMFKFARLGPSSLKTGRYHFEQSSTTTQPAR
T3 sequence (P0ABK2 1-379 partner): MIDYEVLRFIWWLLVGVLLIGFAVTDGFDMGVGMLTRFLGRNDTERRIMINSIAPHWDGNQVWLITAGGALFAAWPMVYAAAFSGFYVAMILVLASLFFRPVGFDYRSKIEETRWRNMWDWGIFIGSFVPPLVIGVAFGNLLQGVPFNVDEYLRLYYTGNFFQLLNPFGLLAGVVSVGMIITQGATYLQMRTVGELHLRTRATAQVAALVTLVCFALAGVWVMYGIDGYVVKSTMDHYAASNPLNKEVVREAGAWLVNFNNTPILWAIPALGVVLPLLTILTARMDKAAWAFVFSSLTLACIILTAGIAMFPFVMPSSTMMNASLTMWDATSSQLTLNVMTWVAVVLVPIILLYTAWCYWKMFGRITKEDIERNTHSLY
T3 sequence (P56100 1-37 partner): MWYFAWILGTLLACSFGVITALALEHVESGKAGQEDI
Source text: O2 consumption activation, Clark-type electrode on cytochrome bd (E. coli) | We examined the effect of CL and observed ~ twofold activation of the oxygen consumption activity

Compound: CC(C)=CCC/C(C)=C/CC/C(C)=C/Cc1c(C)[nH]c2ccccc2c1=O [aurachin D]
- inhibition at 400 nM [1]: G. thermodenitrificans cytochrome bd was sensitive to inhibition by aurachin D
- inhibition at 400 nM [2]: oxygen consumption activity in the presence and absence of CL was sensitive to inhibition by aurachin D

Compound: CC(C)=CCc1c(C)c(O)c2ccccc2c1O [menaquinol-1]
- O2 consumption, Clark-type electrode [3]: using menaquinol-1 instead of ubiquinol-1 as substrate
- O2 consumption, Clark-type electrode [4]: using menaquinol-1 instead of ubiquinol-1 as substrate

Compound: cardiolipin [CL]
- fold activation at 10 μM (cytochrome bd (E. coli)): ~ 2 fold
